Test results published in publication PMC8881501, “Identification of SARS-CoV-2 inhibitors targeting Mpro and PLpro using in-cell-protease assay” (Communications Biology, 2022).
Several values for one entry are separate records, joined by “and”; a condition that tells them apart may be missing. Identical values can stand only once. Non-standard residues stand in square brackets, D forms with d. Residues, ends and D or L forms follow the SMILES beside them. Nle = CCCC[C@H](N)C(=O)O

Key:
[1] = tested on: SARS-CoV-2; format: cell-based; details: Huh-7.5, MOI 0.1, 24 h.p.i., anti-N IFA
[2] = tested on: Mpro; details: thermal shift assay as worded; cited from earlier work
[3] = target: T1, SARS-CoV-2 Mpro (Severe acute respiratory syndrome coronavirus 2, UniProt P0DTC1); assay: biochemical; details: Mpro 200 nM, substrate 10 μM, 1 h pre-incubation; read-out: IC50
Experimental: A cleavage site is indicated by an asterisk. […] N = 3, values are represented as mean ± SE.
For the determination of half-maximal inhibitory concentrations (IC50) of MG-101 and GC376 (BPS Bioscience), a synthetic substrate of Mpro containing FRET pair and Mpro nsp4/5 cleavage site (indicated by an arrow, Dabcyl-KTSAVLQ ↓ SGFRKME-Edans) (BPS Bioscience) was used for the FRET-based cleavage assay. The assay was performed in 96-well, black, flat-bottomed microtiter plates (Greiner Bio-One, Germany) with a final volume of 50 μl. Mpro (a final concentration of 200 nM) was pre-incubated for 1 h at 22 °C with compounds at different concentrations in the assay buffer (20 mM HEPES (pH 7), 0.5 mM EDTA, 1 mM dithiothreitol, 5% glycerol). The substrate was then added at a final concentration of 10 μM to the reaction mixture and the reaction was incubated for 4 h at 22 °C. The readings for the different concentrations of the inhibitor compounds incubated with the substrate without Mpro were measured as a blank. The fluorescence signals (excitation/emission, 360 nm/460 nm) of released EDANS were measured using Infinite 200 PRO multimode plate reader (Tecan, USA). The results were plotted as dose inhibition curves using nonlinear regression with a variable slope to determine the IC50 values of inhibitor compounds using GraphPad Prism 9.0.

[4] = tested on: SARS-CoV-2; assay: Time of addition (pre-treatment) experiment in Huh-7.5 cells, plaque assay; format: cell-based; details: Huh-7.5, pretreatment
[5] = tested on: SARS-CoV-2; assay: microbe, parasite or virus in culture; format: cell-based
[6] = target: SARS-CoV-2 PLpro (Severe acute respiratory syndrome coronavirus 2, UniProt P0DTC1); assay: cell-based; details: HEK-293T
[7] = target: T1, SARS-CoV-2 Mpro; assay: In-cell protease (ICP) assay, Mpro construct in HEK293T cells; format: cell-based; details: HEK-293T
[8] = in vitro; details: human, CC50, Huh-7.5 cells, alamarBlue reduction
[9] = read-out: mEmerald-NLS nuclear/total fluorescence (protease activity) normalized to untreated cells, 1 μM, HEK293T, Fig 2A replicate data, untreated control = 100
[10] = read-out: mEmerald-NLS nuclear/total fluorescence (protease activity) normalized to untreated cells, 10 μM, HEK293T, Fig 2A replicate data, untreated control = 100

In the case of `CCCC[C@@H](C=O)NC(=O)[C@H](CC(C)C)NC(=O)[C@H](CC(C)C)NC(C)=O` [MG-101] (Ac-Leu-Leu-[Nle]-aldehyde), the “inhibition of virus spread compared to untreated controls” value [1] is listed as 95%, the IC50 [2] is listed as 8.6 µM and the IC50 [3] is listed as 2.89 ± 0.86 µM. The “effect of pre-treatment on virus production / entry” value [4] was “affect the virus entry”, the “reduction in virus titer on pretreatment of cells” value [4] was 1 log and the EC50 ([5]; Severe acute respiratory syndrome coronavirus 2, Huh7.5, 24 h) was 0.038 µM. The “virus titer at 24 h.p.i., Fig 6A data” value ([5]; single drug 1 μM, Huh 7.5, replicates) was 48000 and 56000 and 44000, the remaining activity at 1 µM [6, 9] was 68% and the remaining activity at 10 µM [6, 10] was 70%. For the same compound, the remaining activity at 1 µM [7, 9] was 22%, the remaining activity at 10 µM [7, 10] was 8.9% and the CC50 at 24 h [8] was 37 µM.
